{"source": "patent US9120820B2", "about": "“Fluorescent molecular probes for use in assays that measure test compound competitive binding with SAM-utilizing proteins” (CAYMAN CHEMICAL COMPANY, INCORPORATED, priority 2011, dated 2015)", "molecular_target": "T1, NSD2 (Homo sapiens, UniProt O96028)", "T1 construct": "purchased Cayman 10758", "T1 sequence (O96028 1-1365)": "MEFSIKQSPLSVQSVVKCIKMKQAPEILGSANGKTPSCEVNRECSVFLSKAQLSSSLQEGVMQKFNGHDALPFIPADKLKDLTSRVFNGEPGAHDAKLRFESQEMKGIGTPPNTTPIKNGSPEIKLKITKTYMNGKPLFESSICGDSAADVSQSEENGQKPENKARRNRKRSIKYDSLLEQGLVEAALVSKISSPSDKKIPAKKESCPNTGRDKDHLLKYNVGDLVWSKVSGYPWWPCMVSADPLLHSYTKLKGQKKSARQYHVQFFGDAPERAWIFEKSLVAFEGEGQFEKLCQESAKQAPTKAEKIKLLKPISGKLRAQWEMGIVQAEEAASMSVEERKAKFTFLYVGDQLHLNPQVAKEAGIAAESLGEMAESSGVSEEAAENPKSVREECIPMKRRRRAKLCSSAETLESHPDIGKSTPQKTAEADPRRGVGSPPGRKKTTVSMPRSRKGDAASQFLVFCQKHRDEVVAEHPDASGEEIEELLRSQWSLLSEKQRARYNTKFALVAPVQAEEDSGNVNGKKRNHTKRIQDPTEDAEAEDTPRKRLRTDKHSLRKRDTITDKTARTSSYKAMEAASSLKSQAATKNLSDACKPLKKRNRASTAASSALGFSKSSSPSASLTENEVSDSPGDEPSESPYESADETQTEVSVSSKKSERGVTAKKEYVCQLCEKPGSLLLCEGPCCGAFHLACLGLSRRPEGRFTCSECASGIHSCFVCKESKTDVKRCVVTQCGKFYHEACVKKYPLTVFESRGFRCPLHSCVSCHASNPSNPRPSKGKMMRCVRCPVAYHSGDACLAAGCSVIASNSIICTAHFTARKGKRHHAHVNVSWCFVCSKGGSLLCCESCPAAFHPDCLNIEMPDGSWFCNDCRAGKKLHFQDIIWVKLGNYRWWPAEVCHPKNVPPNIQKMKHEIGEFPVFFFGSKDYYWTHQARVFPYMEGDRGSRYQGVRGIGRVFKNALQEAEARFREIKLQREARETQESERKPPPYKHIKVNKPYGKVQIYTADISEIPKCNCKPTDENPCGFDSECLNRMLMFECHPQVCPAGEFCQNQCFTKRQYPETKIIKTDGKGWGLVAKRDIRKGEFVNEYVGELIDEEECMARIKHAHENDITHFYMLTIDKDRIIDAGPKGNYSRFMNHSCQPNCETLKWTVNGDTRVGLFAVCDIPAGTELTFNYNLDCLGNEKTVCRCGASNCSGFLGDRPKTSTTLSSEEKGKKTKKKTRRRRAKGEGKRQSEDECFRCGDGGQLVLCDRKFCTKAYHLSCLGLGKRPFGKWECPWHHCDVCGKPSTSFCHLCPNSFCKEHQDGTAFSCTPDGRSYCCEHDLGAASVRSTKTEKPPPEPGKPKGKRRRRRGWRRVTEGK", "test": "Fluorescence polarization saturation binding of fluorescent probe to NSD2", "experimental": "Methods: The experiment was performed once, with two replicate wells for all methyltransferases per condition. The sole exception to this is NSD2 (see details below). The assay was performed in a ½ area, black, 96-well plate (Corning #3686) in a final volume of 30 μL. Methyltransferases (Table 1) were serially diluted two-fold in FP buffer (Cayman Catalog #600028) and 15 μL of a given dilution were added per well to the assay plate. Fifteen microliters of sinefungin probe 1A (10 nM) were added to each well, giving a final sinefungin probe 1A concentration of 5 nM. This concentration of sinefungin probe 1A was chosen because it had at least a 10-fold increase in fluorescence (excitation max 575 nm/emission max 615 nm) over background (buffer). The mixture was incubated in the dark at room temperature for 30 minutes and its fluorescence polarization was read using a BioTek Synergy 4.\nFor NSD2, the assay was performed essentially as above, but with the following changes. The assay was performed in a 20 μL total volume (10 μL NSD2/10 μL sinefungin probe 1) in low-volume, black, 384-well plates (Nunc #264705). The concentrations of sinefungin probe 1A and methyltransferase were identical to that of the 96-well format. The assay was performed once with three replicate wells per condition.", "data": [{"smiles": "Nc1ncnc2c1ncn2[C@@H]1O[C@H](C[C@@H](N)CC[C@H](N)C(=O)O)[C@@H](OCc2cnnn2CCCCCCNC(=O)OC2CCN(C(=O)c3ccccc3C3=c4cc5c6c(c4Oc4c3cc3c7c4CCCN7CCC3)CCC[N+]=6CCC5)CC2)[C@H]1O", "note": "[Sinefungin Probe 1A]", "values": [{"measurement": "measurable affinity for the probe", "setting": "Example 8, NSD2, 5 nM probe, 384-well, FIG. 2", "result": "only SET7/9 and G9a displayed measurable affinity"}, {"measurement": "Kd", "setting": "NSD2, saturation-binding format, read-out: Sinefungin Probe 1A Affinity", "result": "> 2", "unit": "µM"}]}]}
